The target of experiment [1] is T1, Neutral alpha-glucosidase AB (Homo sapiens) (UniProt Q14697).
T1 sequence (whole entry): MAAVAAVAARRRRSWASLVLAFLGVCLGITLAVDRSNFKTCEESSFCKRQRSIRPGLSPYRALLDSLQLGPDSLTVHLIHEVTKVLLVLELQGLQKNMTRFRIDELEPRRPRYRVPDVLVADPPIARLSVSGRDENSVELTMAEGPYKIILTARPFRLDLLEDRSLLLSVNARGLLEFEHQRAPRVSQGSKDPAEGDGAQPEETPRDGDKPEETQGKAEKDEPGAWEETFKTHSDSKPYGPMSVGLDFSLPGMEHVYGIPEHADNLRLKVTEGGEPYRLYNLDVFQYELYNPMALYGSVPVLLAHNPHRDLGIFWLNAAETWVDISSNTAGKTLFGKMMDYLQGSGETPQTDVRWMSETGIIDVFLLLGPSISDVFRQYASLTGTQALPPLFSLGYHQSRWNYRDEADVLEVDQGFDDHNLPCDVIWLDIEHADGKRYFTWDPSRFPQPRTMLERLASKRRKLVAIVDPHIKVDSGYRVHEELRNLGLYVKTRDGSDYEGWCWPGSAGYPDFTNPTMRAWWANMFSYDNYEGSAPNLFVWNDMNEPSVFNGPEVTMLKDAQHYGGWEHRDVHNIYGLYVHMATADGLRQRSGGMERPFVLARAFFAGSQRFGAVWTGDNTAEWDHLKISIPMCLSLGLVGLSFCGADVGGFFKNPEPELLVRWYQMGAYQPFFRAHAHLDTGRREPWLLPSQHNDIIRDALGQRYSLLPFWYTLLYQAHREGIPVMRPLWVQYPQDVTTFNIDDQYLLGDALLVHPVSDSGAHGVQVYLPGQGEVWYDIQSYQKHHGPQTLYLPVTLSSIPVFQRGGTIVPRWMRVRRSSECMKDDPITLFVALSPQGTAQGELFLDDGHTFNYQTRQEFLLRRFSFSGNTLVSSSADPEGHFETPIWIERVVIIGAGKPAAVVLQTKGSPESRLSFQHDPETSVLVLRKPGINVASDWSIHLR
As to the kind of experiment: Percentage inhibition (100 uM) against Alpha glucosidase.

The nature of experiment [2]: Percentage inhibition (100 uM) against protein tyrosine […].

By inhibition is commonly meant the change of the read-out against control, counted positive when it falls. Lower therefore signals a weak effect.

`N#Cc1c(-c2ccc(C(F)(F)F)cc2)cc(-c2ccc3ccc4cccc5ccc2c3c45)cc1N1CCCC1`: the inhibition in experiment [1] was 93.8%; in experiment [2], 12.5%. For `N#Cc1c(N2CCc3ccccc3C2)cc(-c2ccc(Br)cc2)oc1=O`, the values for the inhibition in experiment [1] and in experiment [2] were 59.7% and 25.1%, respectively. With `N#Cc1c(N2CCc3ccccc3C2)cc(-c2ccc(Cl)cc2)c2c1CCCCC2`, the figures for the inhibition in experiment [1] and in experiment [2] were 47.4% and 42.8%, respectively.

Consider `N#Cc1c(N2CCc3ccccc3C2)cc(-c2cccc3ccccc23)c2c1CCSC2`, for which the inhibition in experiment [1] amounted to 96.1%; in experiment [2] it was 26.7%. Regarding `N#Cc1c(N2CCc3ccccc3C2)cc(-c2cccc3ccccc23)c2c1-c1ccccc1SC2`, the values for the inhibition in experiment [1] and in experiment [2] were 98.7% and 41.9%, respectively.

As to `N#Cc1c(N2CCc3ccccc3C2)cc(-c2ccc(Cl)cc2)c2c1CCCC2`, the inhibition in experiment [1] is 20.7%; in experiment [2] it was 23.2%. Compound `C[C@H]1O[C@H](O[C@H]2[C@H](O)[C@@H](O)[C@@H](O[C@H]3[C@H](O)[C@@H](O)C(O)O[C@@H]3CO)O[C@@H]2CO)[C@H](O)[C@@H](O)[C@@H]1N[C@H]1C=C(CO)[C@@H](O)[C@H](O)[C@H]1O` (some centres not stated) had an inhibition in experiment [1] of 90%. On to `N#Cc1c(N2CCc3ccccc3C2)cc(-c2cccc3ccccc23)c2c1CCCC2`, for which the inhibition in experiment [1] was 72.2%; in experiment [2] it was 14.8%. For `N#Cc1c(N2CCc3ccccc3C2)cc(-c2ccc(Cl)cc2)c2c1CCCCCC2` the same measures were 28.8% and 24.2%.

As to `N#Cc1c(N2CCc3ccccc3C2)cc(-c2ccc(Cl)cc2)oc1=O`, the values for the inhibition in experiment [1] and in experiment [2] were 51.9% and 18.2%, respectively. Consider `N#Cc1c(N2CCc3ccccc3C2)cc(-c2cccc3ccccc23)c2c1-c1ccccc1CC2`, for which the figures for the inhibition in experiment [1] and in experiment [2] were 94.8% and 51.8%, respectively. SODIUM ORTHOVANAD: the inhibition in experiment [2] is 77.6%.
